# Patent publication US8304539B2, “Fused heteroaryl modulators of glucocorticoid receptor, AP-1, and/or NF-κB activity and use thereof” (Bristol-Myers Squibb Company, priority 2008, dated 2012)
# Target: T1, human full-length glucocorticoid receptor (Homo sapiens, UniProt P04150)
# T1 construct: recombinantly expressed human full-length glucocorticoid receptor; purchased PanVera Co., Madison, Wis; P2816
# T1 sequence (P04150 1-777): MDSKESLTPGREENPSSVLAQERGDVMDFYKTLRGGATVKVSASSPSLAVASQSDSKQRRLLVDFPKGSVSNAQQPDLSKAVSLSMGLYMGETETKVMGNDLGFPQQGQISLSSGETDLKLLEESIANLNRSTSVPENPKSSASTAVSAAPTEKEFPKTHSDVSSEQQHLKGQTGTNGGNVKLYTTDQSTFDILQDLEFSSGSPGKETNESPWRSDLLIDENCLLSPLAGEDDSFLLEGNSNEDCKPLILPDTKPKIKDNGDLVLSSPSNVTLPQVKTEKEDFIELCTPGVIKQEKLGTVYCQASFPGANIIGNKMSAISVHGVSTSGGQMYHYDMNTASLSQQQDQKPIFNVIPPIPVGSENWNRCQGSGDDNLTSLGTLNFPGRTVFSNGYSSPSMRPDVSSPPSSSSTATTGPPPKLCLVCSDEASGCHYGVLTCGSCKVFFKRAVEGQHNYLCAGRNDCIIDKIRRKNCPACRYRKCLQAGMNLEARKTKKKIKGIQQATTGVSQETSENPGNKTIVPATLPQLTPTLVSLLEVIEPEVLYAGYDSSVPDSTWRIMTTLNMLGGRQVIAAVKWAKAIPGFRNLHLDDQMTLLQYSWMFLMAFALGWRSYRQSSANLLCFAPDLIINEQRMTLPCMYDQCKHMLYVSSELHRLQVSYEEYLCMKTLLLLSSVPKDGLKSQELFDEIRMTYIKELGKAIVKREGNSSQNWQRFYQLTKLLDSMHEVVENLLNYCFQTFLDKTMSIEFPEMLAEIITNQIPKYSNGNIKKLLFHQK
# Assay: GR binding Assay II (fluorescence polarization competitor assay)
# Settings: given where AP-1 EC50 is greater than 1 uM and/or maximal inhibition is less than 20%; read-out: GR (Ki, nM) (measured in GR binding Assay II)
# Description: Glucocorticoid Receptor Binding Assay (II)
# In order to measure the binding of compounds on the glucocorticoid receptor a commercially available kit was used (Glucocorticoid receptor competitor assay kit, PanVera Co., Madison, Wis., P2816). Briefly, a cell lysate containing recombinantly expressed human full-length glucocorticoid receptor was mixed with a fluorescently labeled glucocorticoid (1 nM Fluormone GS1) in the presence or absence of test compound. After one hour at room temperature, the fluorescence polarization (FP) of the samples were measured. The FP of a mixture of receptor, fluorescent probe (i.e. Fluormone GS1) and 1 mM dexamethasone represented background fluorescence or 100% inhibition, whereas, the FP of the mixture without dexamethasone was taken to be 100% binding. The percentage inhibition of test molecules were then compared to the sample with 1 mM dexamethasone and expressed as % relative binding activity with dexamethasone being 100% and no inhibition is 0%. Test molecules were analyzed in the concentration range from 2.4 nM to 40 microMolar.
row,SMILES,Ki
1,"CC(C)(C(=O)Nc1nncs1)C1c2ccncc2Oc2nc(-c3ccc(C(=O)N4CCOCC4)cc3)ccc21 (stereo not shown) [Example 2, 2-methyl-2-(2-(4-(4-morpholinylcarbonyl)phenyl)-5H-pyrido[4′,3′:5,6]pyrano[2,3-b]pyridin-5-yl)-N-1,3,4-thiadiazol-2-ylpropanamide]",199 nM
2,Cc1ccc2c(n1)Oc1nc(Cl)ccc1C2C(C)(C)C(=O)Nc1nncs1 (stereo not shown) [Example 19],269 nM
3,Cc1ccc2c(n1)Oc1nc(-c3ccc(S(=O)(=O)N(C)C)cc3)ccc1[C@H]2C(C)(C)C(=O)Nc1nncs1 [Example 25],172 nM
4,Cc1ccc2c(n1)Oc1nc(-c3ccc(C(=O)NC(C)(C)C)cc3)ccc1[C@H]2C(C)(C)C(=O)Nc1nncs1 [Example 26],591 nM
5,"Cc1ccc2c(n1)Oc1nc(-c3ccc(S(C)(=O)=O)cc3)ccc1[C@H]2C(C)(C)C(=O)Nc1nncs1 [Example 37, 2-methyl-2-((5S)-2-methyl-8-(4-(methylsulfonyl)phenyl)-5H-pyrido[3′,2′:5,6]pyrano[2,3-b]pyridin-5-yl)-N-1,3,4-thiadiazol-2-ylpropanamide]",78.9 nM
6,CNC(=O)c1nnc(NC(=O)C(C)(C)[C@H]2c3ccc(C)nc3Oc3nc(-c4ccc(C(=O)N(C)C)cc4)ccc32)s1 [Example 45],134 nM
7,CCN(C)C(=O)c1ccc(-c2ccc3c(n2)Oc2nc(C)ccc2[C@@H]3C(C)(C)C(=O)Nc2nnc(C(=O)N(C)C)s2)cc1 [Example 47],149 nM
8,CNC(=O)c1cnc(NC(=O)C(C)(C)[C@H]2c3ccc(C)nc3Oc3nc(-c4ccc(C(=O)N(C)C)cc4)ccc32)s1 [Example 51],423 nM
9,Cc1ccc2c(n1)Oc1nc(-c3ccc(C(=O)N(C)C)cc3)ccc1[C@H]2C(C)(C)C(=O)Nc1ncc(C(=O)N2CCOCC2)s1 [Example 52],411 nM
10,Cc1ccc2c(n1)Oc1nc(-c3ccc(C(=O)N(C)C)cc3)ccc1[C@H]2C(C)(C)C(=O)Nc1ncc(C(=O)NC2CC2)s1 [Example 53],106 nM
11,"C=Cc1ccc2c(n1)Oc1nc(-c3ccc(C(=O)N(C)C)cc3)ccc1C2C(C)(C)C(=O)Nc1nncs1 (stereo not shown) [Example 64, 4-(5-(1,1-dimethyl-2-oxo-2-(1,3,4-thiadiazol-2-ylamino)ethyl)-8-vinyl-5H-pyrido[3′,2′:5,6]pyrano[2,3-b]pyridin-2-yl)-N,N-dimethylbenzamide]",80.8 nM
12,"CN(C)C(=O)c1ccc(-c2ccc3c(n2)Oc2nc(-c4ccccc4)ccc2C3C(C)(C)C(=O)Nc2nncs2)cc1 (stereo not shown) [Example 65, 4-(5-(1,1-dimethyl-2-oxo-2-(1,3,4-thiadiazol-2-ylamino)ethyl)-8-phenyl-5H-pyrido[3′,2′:5,6]pyrano[2,3-b]pyridin-2-yl)-N,N-dimethylbenzamide]",657 nM
13,"CN(C)C(=O)c1ccc(-c2ccc3c(n2)Oc2nc(N4CCOCC4)ccc2C3C(C)(C)C(=O)Nc2nncs2)cc1 (stereo not shown) [Example 69, 4-(5-(1,1-dimethyl-2-oxo-2-(1,3,4-thiadiazol-2-ylamino)ethyl)-8-(4-morpholinyl)-5H-pyrido[3′,2′:5,6]pyrano[2,3-b]pyridin-2-yl)-N,N-dimethylbenzamide]",68.9 nM
14,"CN(C)C(=O)c1ccc(-c2ccc3c(n2)Oc2nc(N4CCCC4)ccc2C3C(C)(C)C(=O)Nc2nncs2)cc1 (stereo not shown) [Example 70, 4-(5-(1,1-dimethyl-2-oxo-2-(1,3,4-thiadiazol-2-ylamino)ethyl)-8-(1-pyrrolidinyl)-5H-pyrido[3′,2′:5,6]pyrano[2,3-b]pyridin-2-yl)-N,N-dimethylbenzamide]",385 nM
15,Cc1ccc2c(n1)Oc1nc(-c3ccc(CN4CCCC4)cc3)ccc1[C@H]2C(C)(C)C(=O)Nc1nncs1 [Example 80],1150 nM
16,"CCN(C)C(=O)c1ccc(-c2ccc3c(n2)Oc2c(ccc[n+]2[O-])C3C(C)(C)C(=O)Nc2nncs2)cc1 (stereo not shown) [Example 84, 4-(5-(1,1-dimethyl-2-oxo-2-(1,3,4-thiadiazol-2-ylamino)ethyl)-9-oxido-5H-pyrido[3′,2′:5,6]pyrano[2,3-b]pyridin-2-yl)-N-ethyl-N-methylbenzamide]",1150 nM
17,Cc1ccc2c(n1)Oc1nc(-c3ccc(C(=O)N4CCC[C@@H]4C(N)=O)cc3)ccc1[C@H]2C(C)(C)C(=O)Nc1nncs1 [Example 90],103 nM
18,Cc1ccc2c(n1)Oc1nc(-c3ccc(C(=O)N4CCC[C@@H]4C(N)=O)cc3)ccc1[C@H]2C(C)(C)C(=O)Nc1nnc(C)s1 [Example 91],122 nM
19,"Cc1ccc2c(n1)Oc1nc(-c3ccc(C(=O)N4CCOCC4)cc3)ccc1[C@H]2C(C)(C)C(=O)Nc1nnn(C)n1 [Example 92, 2-methyl-2-((5S)-2-methyl-8-(4-(4-morpholinylcarbonyl)phenyl)-5H-pyrido[3′,2′:5,6]pyrano[2,3-b]pyridin-5-yl)-N-(2-methyl-2H-tetrazol-5-yl)propanamide]",153 nM

# Further molecules by falling Ki, results first:
row,Ki,SMILES
1,67.2 nM,CCN(C)C(=O)c1ccc(-c2ccc3c(n2)Oc2nc(C)ccc2[C@@H]3C(C)(C)C(=O)Nc2nnc(C(=O)NCCO)s2)cc1 [Example 85]
2,65.6 nM,CCN(C)C(=O)c1ccc(-c2ccc3c(n2)Oc2ncccc2C3C(C)(C)C(=O)Nc2nnc(C(=O)NC3CC3)s2)cc1 (stereo not shown) [Example 7]
3,59 nM,CC(C)(C(=O)Nc1nnc(C(=O)NC2CC2)s1)C1c2cccnc2Oc2nc(-c3ccc(C(=O)N4CCOCC4)cc3)ccc21 (stereo not shown) [Example 6]
4,40.5 nM,Cc1ccc2c(n1)Oc1nc(-c3ccc(OC(C)(C)C)cc3)ccc1[C@H]2C(C)(C)C(=O)Nc1nncs1 [Example 79]
5,38.2 nM,Cc1ccc2c(n1)Oc1nc(-c3ccc(C(=O)N4CCC(F)(F)C4)c(F)c3)ccc1[C@H]2C(C)(C)C(=O)Nc1nncs1 [Example 39]
6,27.6 nM,Cc1ccc2c(n1)Oc1nc(-c3ccc(OC(C)C)nc3)ccc1[C@H]2C(C)(C)C(=O)Nc1nncs1 [Example 74]
7,25.2 nM,Cc1ccc2c(n1)Oc1nc(-c3ccc(S(=O)(=O)C(C)C)cc3)ccc1[C@H]2C(C)(C)C(=O)Nc1nncs1 [Example 83]
8,18.9 nM,CSc1ccc(-c2ccc3c(n2)Oc2nc(C)ccc2[C@@H]3C(C)(C)C(=O)Nc2nncs2)cc1 [Example 29]
9,14.2 nM,Cc1ccc2c(n1)Oc1nc(-c3ccc(C(=O)N4CCCC4)c(F)c3)ccc1[C@H]2C(C)(C)C(=O)Nc1nncs1 [Example 28]
10,13.5 nM,Cc1ccc2c(n1)Oc1nc(-c3ccc(OC4CCCC4)cc3)ccc1[C@H]2C(C)(C)C(=O)Nc1nncs1 [Example 75]
11,11.6 nM,Cc1ccc2c(n1)Oc1nc(-c3ccc(C(=O)N(C)C)cc3)ccc1[C@H]2C(C)(C)C(=O)Nc1nnc(C(=O)NC2CC2)s1 [Example 43]
12,4.59 nM,Cc1ccc2c(n1)Oc1nc(-c3ccc(Oc4ccccc4)cc3)ccc1[C@H]2C(C)(C)C(=O)Nc1nncs1 [Example 23]
13,2.66 nM,Cc1ccc2c(n1)Oc1nc(-c3ccc(OC(F)(F)F)cc3)ccc1[C@H]2C(C)(C)C(=O)Nc1nncs1 [Example 24]
14,2.53 nM,Cc1ccc2c(n1)Oc1nc(-c3ccc(CC(C)C)cc3)ccc1[C@H]2C(C)(C)C(=O)Nc1nncs1 [Example 77]
15,2.15 nM,CCSc1ccc(-c2ccc3c(n2)Oc2nc(C)ccc2[C@@H]3C(C)(C)C(=O)Nc2nncs2)cc1 [Example 78]
